According to US7576064B2, “Pyrazole derivative, drug composition containing the same and production intermediate therefor” (Kissei Pharmaceutical Co., Ltd., priority 2003, dated 2009):

Legend:
human SMINT [1] = target: T1, human SMINT (Homo sapiens, UniProt Q2M3M2); experiment: Confirmatory test for inhibitory activity on human SMINT (methyl-α-D-glucopyranoside uptake in transiently expressing COS-7 cells); assay type: cell-based; details: COS-7 cells transiently expressing human SMINT; 1 mM α-MG; 1 hour, 37° C.; read-out: IC50 value (concentration inhibiting α-MG uptake by 50%)
T1 construct: expressed in transfected cells; host or cells: COS-7 cells (RIKEN CELL BANK RCB0539), transient lipofection
T1 sequence (Q2M3M2 1-681): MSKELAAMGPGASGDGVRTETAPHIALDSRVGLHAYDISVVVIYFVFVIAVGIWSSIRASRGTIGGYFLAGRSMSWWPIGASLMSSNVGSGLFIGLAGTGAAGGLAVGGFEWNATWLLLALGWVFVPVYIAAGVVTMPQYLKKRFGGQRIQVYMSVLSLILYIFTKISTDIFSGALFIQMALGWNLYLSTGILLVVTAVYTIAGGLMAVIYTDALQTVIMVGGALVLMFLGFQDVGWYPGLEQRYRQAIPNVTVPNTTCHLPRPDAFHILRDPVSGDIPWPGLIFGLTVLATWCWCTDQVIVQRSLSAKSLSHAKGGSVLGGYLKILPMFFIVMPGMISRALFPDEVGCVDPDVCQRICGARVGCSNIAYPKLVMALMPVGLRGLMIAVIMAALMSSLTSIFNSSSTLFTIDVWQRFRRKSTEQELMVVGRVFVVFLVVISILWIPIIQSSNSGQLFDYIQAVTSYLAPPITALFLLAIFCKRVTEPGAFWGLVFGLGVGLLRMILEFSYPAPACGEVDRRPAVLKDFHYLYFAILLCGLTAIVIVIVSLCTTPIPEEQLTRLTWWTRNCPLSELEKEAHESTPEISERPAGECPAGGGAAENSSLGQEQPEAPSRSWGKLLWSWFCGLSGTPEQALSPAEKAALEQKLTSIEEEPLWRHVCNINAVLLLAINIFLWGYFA
Text: (§1) Human SMINT-carrying expression plasmid SMINT/pME18S-FL (denotation of bacteria: Escherichia coli/SMINT2010324), which was deposited with Patent Microorganisms Depositary at the National Institute of Technology and Evaluation under an accession number: FERMP-18756 on Mar. 12, 2002, was transfected to COS-7 cells (RIKEN CELL BANK RCB0539) by lipofection method. LIPOFECTAMINE PLUS reagent (Invitrogen) was used as the lipofection reagent. A day before the lipofection, COS-7 cells were suspended in D-MEM medium (Invitrogen) at 6×10^5 cells per 1 mL, and 50 μL of the suspended cells was dispensed into each well of 96-well plate. The lipofection was performed by the following methods. For each well, 0.1 μg of the plasmid was diluted with 10 μL of D-MEM, added 0.5 μL of PLUS reagent, mixed gently, and kept stand for 15 minutes to prepare Plasmid Dilute Solution. For each well, 0.5 μL of LIPOFECTAMINE reagent was diluted with 10 μL of D-MEM to prepare LIPOFECTAMINE Dilute Solution. The Plasmid Dilute Solution was mixed with an equal volume of the LIPOFECTAMINE Dilute Solution, kept stand for 15 minutes. After that, 20 μL of the mixture was added to each well of cell culture medium, and the cells were cultured for 5 hours at 37° C. under 5% CO2. Then 100 μL of D-MEM containing 16.7% fetal bovine serum (Sanko Jun-yaku) was added to each well. […]

human SMINT [2] = target: T1, human SMINT; experiment: Confirmatory test for substrate specificity of human SMINT (inhibition of α-MG uptake by natural sugars); assay type: cell-based; details: natural sugars added to Uptake Buffer with 1 mM α-MG; COS-7 cells transiently expressing human SMINT
Text: FIG. 2 is a graph showing substrate specificity of human SMINT. The vertical axis in dicates methyl-α-D-glucopyranoside (α-MG) uptake activity (%), and the horizontal axis indicates concentration (mol/L).
1) Preparation of Cells Transiently Expressing Human SMINT
as §1, with “Solution.” for “Solution. The Plasmid Dilute Solution was mixed with an equal volume of the LIPOFECTAMINE Dilute Solution, kept stand for 15 minutes. After that, 20 μL of the mixture was added to each well of cell culture medium, and the cells were cultured for 5 hours at 37° C. under 5% CO2. Then 100 μL of D-MEM containing 16.7% fetal bovine serum (Sanko Jun-yaku) was added to each well.”
To Uptake Buffer consisting of 140 mM sodium chloride, 2 mM potassium chloride, 1 mM calcium chloride, 1 mM magnesium chloride, 10 mM 2-[2-(2-hydroxyethyl)-1-piperazinyl]-ethanesulfonic acid, and 5 mM tris(hydroxymethyl)aminomethane (pH 7.4), was added methyl-α-D-glucopyranoside (α-MG) composed of its non-radiolabeled form (Sigma) and ^14C-labeled form (Amersham Biosciences) at 1 mM as the final concentration. […] To the cell lysates were added 150 μL per well of MicroScint 40 (Packard), mixed well, and the radio activity was measured in a micro scintillation counter TOPCOUNT (Packard). α-MG uptake by the cells treated with each concentration of test compounds was calculated as relative activity to control group, which is set as 100% uptake after deducting the basal uptake. […]

Compound	IC50 (human SMINT [1]) [µM]	recognition as substrate by SMINT (FIG. 2) (human SMINT [2])
COc1ccc(Cc2c(O[C@@H]3O[C@H](CO)[C@@H](O)[C@H](O)[C@H]3O)nn(C(C)C)c2Oc2ccccc2)cc1 [Example 1, 1-Isopropyl-4-(4-methoxybenzyl)-5-phenoxy-3-(β-D-glucopyranosyloxy)-1H-pyrazole]	0.7	
OC[C@H]1OC[C@H](O)[C@@H](O)[C@@H]1O [1,5-anhydroglucitol]		recognizes
O=C[C@H](O)[C@@H](O)[C@@H](O)[C@H](O)CO [galactose]		not
O=C(CO)[C@@H](O)[C@H](O)[C@H](O)CO [fructose]		recognizes
COc1ccc(Cc2c(O[C@@H]3O[C@H](CO)[C@@H](O)[C@H](O)[C@H]3O)nn(C(C)C)c2-n2cccn2)c(OC)c1 [Example 4, 1-Isopropyl-4-(2,4-dimethoxyphenylmethyl)-5-(1H-pyrazol-1-yl)-3-(β-D-glucopyranosyloxy)-1H-pyrazole]	0.89	
